Measured values taken from the NIST ThermoML archive (doi:10.1016/j.jct.2014.03.021).

Test: xn = mol fraction of the nth substance listed
Conditions: 101 kPa, Liquid; for speed of sound: Frequency=3 MHz, Sing-around technique in a fixed-path interferometer; for mass density: Vibrating tube method; for electrical conductivity: Alternating current cell with electrodes

C[C@H](O)C(=O)[O-].C[N+](C)(C)CCO + O
Conditions | electrical conductivity [S/m] | mass density [kg/m3] | speed of sound [m/s]
308.15 K, x1 = 0.0258 | – | 1030.91 | –
308.15 K, x1 = 0.0511 | – | 1055.74 | –
308.15 K, x1 = 0.074 | – | 1074.99 | –
308.15 K, x1 = 0.1027 | – | 1089.55 | –
308.15 K, x1 = 0.1443 | – | 1102.31 | –
308.15 K, x1 = 0.1965 | – | 1113.02 | –
308.15 K, x1 = 0.2705 | – | 1122.29 | –
308.15 K, x1 = 0.2957 | – | 1124.2 | –
308.15 K, x1 = 0.3897 | – | 1129.04 | –
308.15 K, x1 = 0.5347 | – | 1131.34 | –
308.15 K, x1 = 0.6044 | – | 1132.01 | –
308.15 K, x1 = 0.6931 | – | 1131.57 | 1899
308.15 K, x1 = 0.7565 | – | 1132.02 | 1896.1
308.15 K, x1 = 0.8375 | – | 1132.67 | 1895.2
308.15 K, x1 = 0.8996 | – | 1133.39 | 1894
308.15 K, x1 = 0.94 | – | 1133.76 | 1890.3
308.15 K, x1 = 0.9611 | – | 1133.93 | 1886.6
313.15 K, x1 = 0.0258 | 4.38 | 1028.62 | 1673.4
313.15 K, x1 = 0.0511 | 4.67 | 1053.12 | 1772.3
313.15 K, x1 = 0.074 | 4.09 | 1072.09 | 1843.8
313.15 K, x1 = 0.1027 | 3.31 | 1086.48 | 1890.1
313.15 K, x1 = 0.1443 | – | 1099.08 | 1927.4
313.15 K, x1 = 0.1965 | 1.65 | 1109.75 | 1935.7
313.15 K, x1 = 0.2705 | – | 1118.95 | 1932.5
313.15 K, x1 = 0.2957 | 0.735 | 1120.95 | 1931.4
313.15 K, x1 = 0.3897 | – | 1125.94 | 1919.3
313.15 K, x1 = 0.5347 | 0.234 | 1128.21 | 1901
313.15 K, x1 = 0.6044 | 0.169 | 1128.91 | 1896.5
313.15 K, x1 = 0.6931 | 0.103 | 1128.31 | 1885.6
313.15 K, x1 = 0.7565 | – | 1128.77 | 1883
313.15 K, x1 = 0.798 | 0.069 | – | –
313.15 K, x1 = 0.8375 | – | 1129.44 | 1882.1
313.15 K, x1 = 0.8996 | 0.071 | 1130.23 | 1880.5
313.15 K, x1 = 0.94 | – | 1130.63 | 1876.1
313.15 K, x1 = 0.9611 | – | 1130.81 | 1872
318.15 K, x1 = 0.0258 | 4.99 | 1026.22 | 1674
318.15 K, x1 = 0.0511 | 5.07 | 1050.42 | 1768.1
318.15 K, x1 = 0.074 | 4.55 | 1069.15 | 1835.9
318.15 K, x1 = 0.1027 | 3.83 | 1083.38 | 1879.8
318.15 K, x1 = 0.1443 | – | 1095.34 | 1914.8
318.15 K, x1 = 0.1965 | 1.92 | 1106.48 | 1922.8
318.15 K, x1 = 0.2705 | – | 1115.26 | 1919.8
318.15 K, x1 = 0.2957 | 0.898 | 1117.03 | 1918.3
318.15 K, x1 = 0.3897 | – | 1122.53 | 1906.8
318.15 K, x1 = 0.5347 | 0.262 | 1125.08 | 1888
318.15 K, x1 = 0.6044 | 0.197 | 1125.81 | 1883.5
318.15 K, x1 = 0.6931 | 0.118 | 1125 | 1872.5
318.15 K, x1 = 0.7565 | – | 1125.55 | 1870.1
318.15 K, x1 = 0.798 | 0.103 | – | –
318.15 K, x1 = 0.8375 | – | 1126.28 | 1869.1
318.15 K, x1 = 0.8996 | 0.084 | 1127.07 | 1867.3
318.15 K, x1 = 0.94 | – | 1127.56 | 1862.4
318.15 K, x1 = 0.9611 | – | 1127.75 | 1858
323.15 K, x1 = 0.0258 | 5.23 | 1023.68 | 1673.8
323.15 K, x1 = 0.0511 | 5.47 | 1047.63 | 1763.2
323.15 K, x1 = 0.074 | 5.09 | 1066.16 | 1827.6
323.15 K, x1 = 0.1027 | 4.26 | 1080.24 | 1869.2
323.15 K, x1 = 0.1443 | – | 1092.47 | 1907
323.15 K, x1 = 0.1965 | 2.18 | 1103.2 | 1910
323.15 K, x1 = 0.2705 | – | 1112.52 | 1911.6
323.15 K, x1 = 0.2957 | 1.01 | 1114.46 | 1905.2
323.15 K, x1 = 0.3897 | – | 1119.8 | 1898.7
323.15 K, x1 = 0.5347 | 0.318 | 1121.95 | 1875
323.15 K, x1 = 0.6044 | 0.235 | 1122.71 | 1870.6
323.15 K, x1 = 0.6931 | 0.151 | 1121.7 | 1859.6
323.15 K, x1 = 0.7565 | – | 1122.21 | 1863
323.15 K, x1 = 0.798 | 0.134 | – | –
323.15 K, x1 = 0.8375 | – | 1123.02 | 1861.8
323.15 K, x1 = 0.8996 | 0.144 | 1123.98 | 1854.4
323.15 K, x1 = 0.94 | – | 1124.48 | 1854.3
323.15 K, x1 = 0.9611 | – | 1124.69 | 1849.7
